Source: patent US20260256751A1, “COMBINATION OF BETA-2-ADRENERGIC RECEPTOR AGONISTS AND GLP-1 RECEPTOR AGONISTS FOR USE IN TREATING HYPERGLYCAEMIA” (ATROGI AB, priority 2023, published 2026)

What was measured:
[1] = test system: differentiated L6-myotubes; assay: Glucose uptake screen (Biological example 1 of WO 2019/053427); format: cell-based; conditions: compound at 10 μM, activity relative to isoproterenol at 10 μM, read-out: Biological example 1 of WO 2019/053427 (GU)
Outline: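 Uptake was read out as ^3H-2-deoxyglucose (50 nM, 10 min) radioactivity in NaOH lysates. Beforehand, overnight-starved, differentiated L6 myotubes received compound at 1×10^−5 M with ICI-118551 present for 1 h 40 min, followed by fresh agonist for a further 20 min in glucose-free medium.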

[2] = test system: differentiated L6-myotubes; assay: cAMP production relative to isoprenaline (Biological example 2 of WO 2019/053427); format: cell-based; conditions: 0.25 h, compound at 10 μM, activity relative to isoproterenol at 10 μM
Outline: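 Values are cAMP levels relative to isoprenaline at equal concentration (final 1×10^−5 M for both). Stimulation lasted 15 min in differentiated L6 myotubes, using HBSS buffer (pH 7.4) containing 1 mM IBMX, 5 mM HEPES and 1% BSA.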

Row | Structure (SMILES) | Emax at 10 µM [1] [%] | Emax at 10 µM [2] [%]
1 | COC(=O)[C@H]1CC[C@H](CC(C)(C)NC[C@H](O)c2cccc(F)c2)CC1 [Compound 353, methyl (1R,4r)-4-{2-[(R)-2-(m-fluorophenyl)-2-hydroxyethylamino]-2-methylpropyl}cyclohexanecarboxylate] | > 75 | < 25
2 | O[C@@H](c1cccc(F)c1)C12CCC(COc3ccc(Cl)cc3)(CC1)N2 [Compound 440, (S)-{4-[(p-chlorophenoxy)methyl]-7-azabicyclo[2.2.1]hept-1-yl}(m-fluorophenyl)methanol] | > 75 | < 25
3 | CCCCNC[C@H](O)c1csc(N)n1 [Compound 71, (S)-1-(2-amino-1,3-thiazol-4-yl)-2-(butylamino)-1-ethanol] | 25 to 50 | < 25
4 | CCC[C@H](C)NC[C@H](O)c1cccc(F)c1 [Compound 51, (R)-2-[(S)-1-methylbutylamino]-1-(m-fluorophenyl)-1-ethanol] | > 75 | < 25
5 | CN(C)C(=O)N[C@H]1CC[C@@H](CC(C)(C)NC[C@H](O)c2cccc(F)c2)CC1 [Compound 457, (R)-2-{1,1-dimethyl-2-[(1s,4S)-4-(3,3-dimethylureido)cyclohexyl]ethylamino}-1-(m-fluorophenyl)-1-ethanol] | > 75 | 25 to 50
6 | COc1ccc(CCC23CCC([C@@H](O)c4cccc(F)c4)(CC2)N3)cc1 [Compound 539, (S)-(m-fluorophenyl){4-[2-(p-methoxyphenyl)ethyl]-7-azabicyclo[2.2.1]hept-1-yl}methanol] | < 25 | < 25
7 | CCCCNCC(O)c1ccncc1 (stereo not shown) [Compound 48, 2-(butylamino)-1-(4-pyridyl)-1-ethanol] | 25 to 50 | < 25
8 | CC(=O)N[C@H]1CC[C@H](C(C)(C)NC[C@H](O)c2cncc(F)c2)CC1 [Compound 346, N-[(1R,4r)-4-{1-[(R)-2-(5-fluoro-3-pyridyl)-2-hydroxyethylamino]-1-methylethyl}cyclohexyl]acetamide] | > 75 | < 25
9 | CC1(C)CCC[C@H]([C@H](O)c2ccccc2F)N1 [Compound 177, (R)-[(R)-6,6-dimethyl-2-piperidyl](o-fluorophenyl)methanol] | 50 to 75 | < 25
10 | CC(=O)N[C@H]1CC[C@H](CCC(C)(C)NC[C@H](O)c2cncc(F)c2)CC1 [Compound 361, N-[(1R,4r)-4-{3-[(R)-2-(5-fluoro-3-pyridyl)-2-hydroxyethylamino]-3-methlbutyl}cyclohexyl]acetamide] | > 75 | < 25
11 | Cn1ccc([C@@H](O)CNC(C)(C)C)cc1=O [Compound 98, 4-[(R)-2-(tert-butylamino)-1-hydroxyethyl]-1-methyl-2(1H)-pyridinone] | > 75 | < 25
12 | O=C(N[C@H]1CC[C@@H](CNC[C@H](O)c2cccc(F)c2)CC1)c1ccccc1 [Compound 316, N-[(1S,4s)-4-{[(R)-2-(m-fluorophenyl)-2-hydroxyethylamino]methyl}cyclohexyl]benzamide] | 50 to 75 | < 25
13 | CO[C@H]1CC[C@H](C[C@H]2CC[C@H]([C@H](O)c3cccc(F)c3)N2)CC1 [Compound 335, (R)-[(2R,5R)-5-{[(1r,4R)-4-methoxycyclohexyl]methyl}-2-pyrrolidinyl](m-fluorophenyl)methanol] | > 75 | < 25
14 | CCCC(C)NCC(O)c1ccc(O)cc1 (stereo not shown) [Compound 8, 1-(p-hydroxyphenyl)-2-(1-methylbutylamino)-1-ethanol] | 50 to 75 | 25 to 50
15 | O[C@@H](c1cncc(F)c1)[C@H]1CC[C@@H](Cc2ccc(Cl)cc2)N1 [Compound 403, (S)-{(2R,5S)-5-[(p-chlorophenyl)methyl]-2-pyrroldiinyl}(5-fluoro-3-pyridyl)methanol] | 50 to 75 | < 25
16 | O[C@@H](c1cccc(F)c1)C12CCC(C/C=C/c3ccccc3)(CC1)N2 [Compound 533, (S)-{4-[(E)-3-phenyl-2-propenyl]-7-azabicyclo[2.2.1]hept-1-yl}(m-fluorophenyl)methanol] | < 25 | < 25
17 | CS(=O)(=O)N(Cc1ccccc1)[C@H]1CC[C@@H](C[C@@H]2CC[C@H]([C@@H](O)c3cccc(F)c3)N2)CC1 [Compound 509, (S)-[(2R,5S)-5-({(1s,4R)-4-[(benzyl)-N-mesylamino]cyclohexyl}methyl)-2-pyrrolidinyl](m-fluorophenyl)methanol] | < 25 | < 25
18 | CC1(C)C[C@H]([C@H](O)c2cncc(F)c2)N1 [Compound 214, (R)-[(R)-4,4-dimethyl-2-azetidinyl](5-fluoro-3-pyridyl)methanol] | > 75 | < 25

Row | Structure (SMILES) | Emax at 10 µM [1] [%] | Emax at 10 µM [2] [%]
19 | CC1(C)CC[C@H]([C@@H](O)c2cccc(F)c2)N1 [Compound 109, (S)-[(R)-5,5-dimethyl-2-pyrrolidinyl](m-fluorophenyl)methanol] | 25 to 50 | < 25
20 | CCCC(C)NCC(O)c1cc(Cl)c(N)c(C(F)(F)F)c1 (stereo not shown) [Compound 33, 1-[4-amino-3-chloro-5-(trifluoromethyl)phenyl]-2-(1-methylbutylamino)-1-ethanol] | 50 to 75 | > 75
21 | O[C@@H](CNCC[C@H]1CC[C@H](O)CC1)c1cncc(F)c1 [Compound 294, (R)-1-(5-fluoro-3-pyridyl)-2-{2-[(1r,4R)-4-hydroxycyclohexyl]ethylamino}-1-ethanol] | 25 to 50 | < 25
22 | CN(C)S(=O)(=O)[C@H]1CC[C@H](CC(C)(C)NC[C@H](O)c2cccc(F)c2)CC1 [Compound 464, (R)-2-{1,1-dimethyl-2-[(1r,4R)-4-(dimethylaminosulfonyl)cyclohexyl]ethylamino}-1-(m-fluorophenyl)-1-ethanol] | 25 to 50 | 25 to 50
23 | CC(C)(C[C@H]1CC[C@@H](O)CC1)NC[C@H](O)c1cncc(F)c1 [Compound 301, (R)-2-{1,1-dimethyl-2-[(1s,4S)-4-hydroxycyclohexyl]ethylamino}-1-(5-fluoro-3-pyridyl)-1-ethanol] | > 75 | < 25
24 | CO[C@H]1CC[C@@H](CCCNC[C@H](O)c2cccc(F)c2)CC1 [Compound 258, (R)-1-(m-fluorophenyl)-2-{3-[(1s,4R)-4-methoxycyclohexyl]propyl-amino}-1-ethanol] | > 75 | 50 to 75
25 | CS(=O)(=O)N[C@H]1CC[C@H](C[C@@H]2CC[C@H]([C@H](O)c3cccc(F)c3)N2)CC1 [Compound 504, (R)-[(2R,5S)-5-{[(1r,4S)-4-(mesylamino)cyclohexyl]methyl}-2-pyrrolidinyl](m-fluorophenyl)methanol] | 50 to 75 | < 25
26 | CC1(C)CCC[C@@H]([C@@H](O)c2ccccc2F)N1 [Compound 192, (S)-[(S)-6,6-dimethyl-2-piperidyl](o-fluorophenyl)methanol] | 25 to 50 | < 25
27 | O[C@@H](c1cccc(F)c1)C12CCC(Cc3ccccc3)(CC1)N2 [Compound 389, (S)-(4-benzyl-7-azabicyclo[2.2.1]hept-1-yl)(m-fluorophenyl)methanol] | 50 to 75 | < 25
28 | CCCCNCC(O)c1ccc(F)c(F)c1 (stereo not shown) [Compound 56, 2-(butylamino)-1-(3,4-difluorophenyl)-1-ethanol] | 50 to 75 | < 25
29 | CC12CC(C1)[C@@H]([C@H](O)c1cccc(Cl)c1)N2 [Compound 209, (R)-{(S)-1-methyl-2-azabicyclo[2.1.1]hex-3-yl}(m-chlorophenyl)methanol] | 25 to 50 | < 25
30 | CN(C)S(=O)(=O)[C@H]1CC[C@H](CC(C)(C)NC[C@H](O)c2cncc(F)c2)CC1 [Compound 465, (R)-2-{1,1-dimethyl-2-[(1r,4R)-4-(dimethylaminosulfonyl)cyclohexyl]ethylamino}-1-(5-fluoro-3-pyridyl)-1-ethanol] | 50 to 75 | 25 to 50
31 | CC1(C)CC[C@@H]([C@H](O)c2cccc(F)c2)N1 [Compound 144, (R)-[(S)-5,5-dimethyl-2-pyrrolidinyl](m-fluorophenyl)methanol] | < 25 | < 25
32 | CCC[C@H]1CCC[C@@H]([C@H](O)c2cccc(F)c2)N1 [Compound 120, (R)-[(2S,6S)-6-propyl-2-piperidyl](m-fluorophenyl)methanol] | 50 to 75 | < 25
33 | CC12CC(C1)[C@H]([C@@H](O)c1cccc(F)c1)N2 [Compound 187, (S)-{(R)-1-methyl-2-azabicyclo[2.1.1]hex-3-yl}(m-fluorophenyl)methanol] | 25 to 50 | < 25
34 | CO[C@H]1CC[C@H](C[C@]2(C)CC[C@H]([C@@H](O)c3cccc(F)c3)N2)CC1 [Compound 363, (S)-[(2R,5S)-5-methyl-5-{[(1r,4S)-4-methoxycyclohexyl]methyl}-2-pyrrolidinyl](m-fluorophenyl)methanol] | > 75 | < 25
35 | CC1(C)C[C@H]([C@@H](O)c2cccc(Cl)c2)N1 [Compound 233, (S)-[(R)-4,4-dimethyl-2-azetidinyl](m-chlorophenyl)methanol] | < 25 | < 25
